# Experimental data reported in patent US9681668B2, “Control of plant diseases and enhancing plant growth using a combination of a Trichoderma virens species and a rhizosphere competent Trichoderma harzianum species” (priority 2008, dated 2017).
# Key:
# Format in all cases: in vivo
# Phytophthora cinnamomi [1] = experiment: Example 1: soil treatment of boxwoods inoculated with P. cinnamomi; conditions: boxwood; for Marketability: 1(dead)-5(excellent) Scale: G41 8 oz, mefenoxam 1 oz/100 gal, mean of 10
# Method: (§1) Except for the non-inoculated controls, each plant was treated with P. cinnamomi inoculum to induce disease. Boxwood plants were obtained from a local nursery and placed into a 6 inch diameter pot containing pine bark: peat (3:1 volume:volume) potting media. The medium was amended with 14 lb of 17-7-12 Osmocote fertilizer per cubic yard of mix.
# (§2) Inoculum of P. cinnamomi was grown on sterilized rice grains for 14 days at 24-26° C. prior to inoculation. To treat the plants with the pathogen inoculum, four holes were punched equidistant around the root ball, and four colonized rice grains were inserted in each hole. Each of the test materials was applied at the specified rate to the soil surface, using a 2.5 pint hand held sprayer. The chemical standard, mefenoxam (Subdue®), was applied to the soil surface 24 hours after the plant roots were inoculated with P. cinnamomi inoculum. T22 and G41 were applied to the soil surface 72 hours prior to root inoculation with P. cinnamomi.
# (§3) A marketability rating was determined for each plant at one day after inoculation (DAI) with P. cinnamomi, 22 days DAI, and 54 days DAI. Using the following scale, each plant was rated by three researchers and the mean value was determined for each plant: • 1: Dead plants • 2: Poor, unsalable (severe chlorosis and poor top growth) • 3: Moderate, salable (slight chlorosis and/or stunting; plant growth between 2 and 4) • 4: Salable (few individual leaves with chlorosis, green foliage; plant growth between 3 and 5) • 5: Excellent health, salable (no chlorosis; optimum top growth)
# (§4) At 1, 22, and 54 DAI, plant height was measured from the crown to the highest point of the plant. Dry root weight and fresh shoot weight were determined at 22 and 54 DAI.
# (§5) At 22 DAI, a subset of plants from each treatment were removed and examined. Plants were removed from the pots, and excess soil was carefully brushed from the roots. Above ground portions (shoots) were cut away from the below ground portions and dried in an oven. Dry root weights and fresh shoot weights were recorded. At 54 DAI, the experiment was terminated; the remaining plants were treated as above to determine dry root and shoot weights. Data were subjected to analysis of variance and treatment means were separated by Student-Newman-Keuls test at P=0.05.
# Phytophthora cinnamomi [2] = experiment: Example 2: spray treatment of boxwoods challenged with Phytophthora cinnamomi; conditions: boxwood, P. cinnamomi; for Dry Root Weight / Fresh Shoot Weight: mean of 5; for Marketability: 1(dead)-5(excellent) Scale: G41 4 oz, T22 4 oz, mefenoxam 1 oz/100 gal; for Marketability: 1(dead)-5(excellent) Scale / Height: mean of 10
# Method: as §1, §2, §3, §4, §5
# Except for the non-inoculated controls, each plant was treated with P. cinnamomi inoculum to induce disease. The methodology for this test was identical to that described in Example 1.
# Phytophthora nicotianae = experiment: Example 3: spray treatment of azaleas challenged with Phytophthora nicotianae; conditions: azalea, P. nicotianae; for Dry Root Weight / Fresh Shoot Weight: mean of 5; for Marketability: 1(dead)-5(excellent) Scale: G41 4 oz, T22 4 oz, mefenoxam 1 oz/100 gal; for Marketability: 1(dead)-5(excellent) Scale / Height: mean of 10
# Method: as §2, §3, §4, §5
# Except for the non-inoculated controls, each plant was treated with P. nicotianae inoculum to induce disease. The methodology for this test was identical to that described in Example 1.
# [3] = tested on: Fusarium oxysporum f. sp. lycopersici; experiment: Example 4: soil drench of tomato seedlings challenged with Fusarium oxysporum; conditions: 28 DAI, biologicals 4 oz, mefenoxam 1 oz/100 gal, mean of 28 plants
# Method: (§6) Tomato, Lycopersicon esculentum, var esculentum ‘Beefsteak’, seedlings were subjected to the soil drench treatments set forth in Table 13. Except for the non-inoculated controls, each plant was treated with inoculum of the pathogen F. oxysporum f. sp. lycopersici to induce disease.
# (§7) Tomatoes were started in 128-cell flats from seeds in a general purpose, peat-based growing medium. Plants were watered with a 100 ppm solution of 20-20-20 water-soluble plant food (Jack's Classic). At 4-5 days after planting, the seedlings were drenched with the biological materials mixed in water. Seedlings not receiving treatments at this time were treated only with the blank formulation (without Trichoderma).
# (§8) Inoculum of F. oxysporum was grown on sterilized rice grains for 7 days at 24-26° C. The rice was uniformly blended into growing medium at a rate of 5% (weight: weight). Seven day old tomato seedlings were transplanted into 4 inch pots that contained the pathogen inoculum on rice. A set of untreated control seedlings were transplanted into pots containing the growing medium plus uninoculated rice. […]
# Plants were maintained in a growing room at 20-24° C. under a 12 hour light: dark cycle. […] The material was dried in an oven at 60° C. until completely dry (approximately 24 hours) and the weights recorded. […] Significant differences between treatment means were determined using Tukey's HSD test at P=0.05.
# Pythium irregulare [4] = experiment: Example 5: soil drench of tomato seedlings challenged with Pythium irregulare; conditions: 21 DAI, biologicals 4 oz, mefenoxam 1 oz/100 gal, mean of 28 plants
# Method: Tomato, Lycopersicon esculentum, var esculentum ‘Beefsteak’, seedlings were subjected to the soil drench treatments set forth in Table 13. Except for the non-inoculated controls, each plant was treated with inoculum of the pathogen Pythium irregulare to induce disease.
# Tomato seedlings were grown and treated as described above in Example 2. Sterile rice was inoculated with a suspension of P. irregulare at the rate of 1 colonized PDA Petri plate/1 liter of sterile water. Rice was incubated for 24 hours at 24-26° C. Infested rice was uniformly blended into the growing medium at a rate of 5% (weight: weight).
# Tomato seedlings were transplanted into 4 inch pots that contained the pathogen inoculum on rice. A set of untreated control seedlings were transplanted into pots containing the growing medium plus rice, but no pathogen. A set of seedlings was drenched with the label rate of mefenoxam to serve as the chemical standard and a set of treated control seedlings was transplanted into medium containing the pathogen.
# Plants were maintained in a growing room at 20-24° C. under a 12 hour light: dark cycle. Plants were watered with a nutrient solution as described above. […] The material was dried in an oven until completely dry (approximately 24 hours) and the weights recorded.
# Pythium aphanidermatum = experiment: Example 6: cucumber seed coating against Pythium aphanidermatum damping-off; conditions: P. aphanidermatum inoculum, greenhouse
# Method: Cucumber, Cucumis sativus, var Marketmore 76 seeds were coated with T harzianum and/or T. virens, or mefenoxam as described by Pill et al. (Pill et. al., Scientia Horticulturae 121:54-62 (2009), which is hereby incorporated by reference in its entirety). Seeds were planted into flats with or without P. aphanidermatum inoculum. The experiment was conducted in a greenhouse with natural lighting and temperature settings of 25/22° C. (day/night). The numbers of seedlings emerged were recorded daily until there was no increase for two consecutive days. Diseased plants were recorded as either pre- (no seedling emergence) or post-emergent (shoot lodging).
# Rhizoctonia solani = experiment: Example 7: soil drench of tomato seedlings challenged with Rhizoctonia solani; conditions: R. solani, 23 DAI, biologicals 4 oz, mefenoxam 1 oz/100 gal, mean of 28 plants
# Method: Tomato, Lycopersicon esculentum, var esculentum ‘Beefsteak’, seedlings were subjected to the soil drench treatments set forth in Table 13, except that there were no untreated control plants. Except for the non-inoculated controls, each plant was treated with inoculum of the pathogen R. solani to induce disease.
# Tomato seedlings were grown and treated as described above in Example 2. Sterile rice was inoculated with agar plugs from PDA Petri plates containing growing colonies of R. solani at a rate of one colonized PDA plate/500 g rice. Rice was incubated for 10 days at 24-26° C. Infested rice was uniformly blended into the growing medium at a rate of 5% (weight: weight).
# Tomato seedlings were transplanted into 4 inch pots that contained the pathogen inoculum on rice. The untreated check plants became contaminated with an unknown disease and were not included in the analysis. A set of seedlings was drenched with the label rate of mefenoxam to serve as the chemical standard and a set of treated control seedlings was transplanted into medium containing the pathogen.
# Plants were maintained in a growing room at 20-24° C. under a 12 hour light: dark cycle. Plants were watered with a nutrient solution as described above. […] The material was dried in an oven at 60° C. until completely dry (approximately 24 hours) and the weights recorded. Data were analyzed as described in Example 2, above.
# Pythium irregulare [5] = experiment: Example 8 Experiment 1: soil drench of cucumber seedlings challenged with Pythium irregulare (T22 and G21); conditions: 28 DAI, biologicals 4 oz, mefenoxam 1 oz/100 gal, mean of 14 plants
# Method: Except for the non-inoculated controls, each plant was treated with inoculum of the pathogen Pythium irregulare to induce disease.
# Seedlings were grown and treated as described in Example 4. Sterile rice was inoculated with a suspension of P. irregulare at the rate of one colonized PDA Petri plate/1 liter of sterile water. Rice was incubated for 24 hours at 24-26° C. Infested rice was uniformly blended into the growing medium at a rate of 5% (weight: weight).
# Cucumber seedlings were transplanted into 4 inch pots that contained the pathogen inoculum on rice. A set of untreated control seedlings were transplanted into pots containing the growing medium plus rice, but no pathogen. A set of seedlings was drenched with the label rate of mefenoxam to serve as the chemical standard and a set of treated control seedlings was transplanted into medium containing the pathogen.
# Plants were maintained in a growing room at 20-24° C. under a 12 hour light: dark cycle. At 28 DAI, the experiment was terminated, and the plants were each separated into two parts: root (below ground) and shoot (above ground). The material was dried in an oven at 60° C. until completely dry (approximately 24 hours) and the weights recorded. Data were analyzed as described in Example 4.
# [6] = tested on: Fusarium oxysporum f. sp. lycopersici; experiment: Example 8 Experiment 2: soil drench of tomato seedlings challenged with Fusarium oxysporum (T12 and G41); conditions: 28 DAI, biologicals 4 oz, mefenoxam 1 oz/100 gal, mean of 14 plants
# Method: as §6, §7, §8
# Plants were maintained in a growing room at 20-24° C. under a 12 hour light: dark cycle. […] The material was dried in an oven at 60° C. until completely dry (approximately 24 hours) and the weights recorded. […] Significant differences between treatment means were determined using Tukey's HSD test at P=0.05. […]
smiles,measurement,setting,value
"COCC(=O)N(c1c(C)cccc1C)[C@H](C)C(=O)OC [Mefenoxam, mefenoxam]",Marketability: 1(dead)-5(excellent) Scale,"Phytophthora cinnamomi [1]; 5/26, T22 4 oz",5 a
same,Height,"Phytophthora cinnamomi [1]; 5/26, mean of 10",13.8 a cm
same,Marketability: 1(dead)-5(excellent) Scale,"Phytophthora cinnamomi [1]; 6/21, T22 4 oz",4.4 a
same,Dry Root Weight,"Phytophthora cinnamomi [1]; 6/21, mean of 5",16.7 a g
same,Fresh Shoot Weight,"Phytophthora cinnamomi [1]; 6/21, mean of 5",86.2 a g
same,Height,"Phytophthora cinnamomi [1]; 6/21, mean of 10",39.7 a cm
same,Marketability: 1(dead)-5(excellent) Scale,"Phytophthora cinnamomi [1]; 7/10, T22 4 oz",4.7 a
same,Dry Root Weight,"Phytophthora cinnamomi [1]; 7/10, mean of 5",30.1 a g
same,Fresh Shoot Weight,"Phytophthora cinnamomi [1]; 7/10, mean of 5",108.3 a g
same,Height,"Phytophthora cinnamomi [1]; 7/10, mean of 10",39.8 a cm
same,Dry Root Weight,Phytophthora cinnamomi [2]; 1/13,96.0 ab g
same,Fresh Shoot Weight,Phytophthora cinnamomi [2]; 1/13,81.6 a g
same,Dry Root Weight,Phytophthora cinnamomi [2]; 12/12,76.4 a g
same,Fresh Shoot Weight,Phytophthora cinnamomi [2]; 12/12,64.8 a g
same,Marketability: 1(dead)-5(excellent) Scale,"Phytophthora cinnamomi [2]; Dec. 12, 2004",4.6 a
same,Height,"Phytophthora cinnamomi [2]; Dec. 12, 2004",34.6 ab cm
same,Marketability: 1(dead)-5(excellent) Scale,"Phytophthora cinnamomi [2]; Jan. 13, 2005",4.7 ab
same,Height,"Phytophthora cinnamomi [2]; Jan. 13, 2005",36.7 ab cm
same,Marketability: 1(dead)-5(excellent) Scale,"Phytophthora cinnamomi [2]; Nov. 21, 2004",5.0 a
same,Height,"Phytophthora cinnamomi [2]; Nov. 21, 2004",13.3 ab cm
same,Dry Root Weight,Phytophthora nicotianae; 6/21,44.2 a g
same,Fresh Shoot Weight,Phytophthora nicotianae; 6/21,49.0 ab g
same,Dry Root Weight,Phytophthora nicotianae; 7/10,55.5 ab g
same,Fresh Shoot Weight,Phytophthora nicotianae; 7/10,70.3 ab g
same,Marketability: 1(dead)-5(excellent) Scale,"Phytophthora nicotianae; Dec. 17, 2004",4.4 ab
same,Height,"Phytophthora nicotianae; Dec. 17, 2004",27.5 ab cm
same,Marketability: 1(dead)-5(excellent) Scale,"Phytophthora nicotianae; Jan. 6, 2005",4.4 ab
same,Height,"Phytophthora nicotianae; Jan. 6, 2005",35.5 ab cm
same,Marketability: 1(dead)-5(excellent) Scale,"Phytophthora nicotianae; Nov. 25, 2004",5 a
same,Height,"Phytophthora nicotianae; Nov. 25, 2004",13.7 a cm
same,Dry Root Weight,[3],0.12 bc g
same,Dry Shoot Weight,[3],0.90 bc g
same,Dry Root Weight,Pythium irregulare [4],0.04 c g
same,Dry Shoot Weight,Pythium irregulare [4],0.28 g·days
same,"Percent Damping-Off, Pre-emergence",Pythium aphanidermatum,4.6 bc Percent
same,"Percent Damping-Off, Total",Pythium aphanidermatum,9.3 c Percent
same,Dry Root Weight,Rhizoctonia solani,0.06 b g
same,Dry Shoot Weight,Rhizoctonia solani,0.42 c g
same,Dry Root Weight,Pythium irregulare [5],0.10 abc g
same,Dry Shoot Weight,Pythium irregulare [5],0.66 ab g
same,Dry Root Weight,[6],0.03 b g
same,Dry Shoot Weight,[6],0.17 c g
